Measured values from patent US8541442B2, “Indole derivatives as anticancer agents” (Janssen Pharmaceutica N.V., priority 2009, dated 2013).

Columns and labels:
[1] = system: colorectal cancer cell line HCT116; assay: Alamar Blue cell proliferation assay, HCT116; format: cell-based; conditions: for HCT116 cell proliferation inhibition pIC50: HCT116 cells; for IC50: Homo sapiens, HCT-116, HCT116 cells, read-out: HCT116 cell proliferation inhibition pIC50 (converted)
Description: For experiments in 384 wells plates the cells were seeded at a density of 5×10^3 cells/ml in Falcon 384-well culture plates (Life Technologies, Merelbeke, Belgium), black with clear bottom, in 45 μl culture medium. Cells were allowed to adhere to plastic for 24 hr. The tested compound was pre-diluted (1/50 in culture medium) and 5 μl pre-diluted compound was added to the wells. Following 4-day incubation, 10 μl of the Alamar Blue solution was added to each well and the cells were further incubated for 5 hrs (A2780) at 37° C. The fluorescence intensity was measured for each well with a Fluorescence plate reader (Fluorskan, Labsystems, 540 nm excitation and 590 nm emission)
The antiproliferative activity was calculated as percentage of remaining viable cells in treated versus control (untreated cells) conditions. Within an experiment, the result for each experimental condition is the mean of 3 replicate wells. When appropriate, the experiments were repeated to establish full concentration-response curves. When appropriate, IC50-values (concentration of the drug, needed to reduce cell growth to 50% of the control) were computed using probit analysis for graded data (Finney, D. J., Probit Analyses, 2nd Ed. Chapter 10, Graded Responses, Cambridge University Press, Cambridge 1962). Herein the effects of test compounds are expressed as pIC50 (the negative log value of the IC50-value (M)) (see Table 5A).
Compounds were also tested according to the above protocol but using other cell lines: colorectal cancer cell line HCT116, non-small cell lung cancer cell line H1299, human prostate cancer cell line DU145.

Male NMRI mice = assay: Ro-4-1284 antagonism in mice; format: in vivo
Description: The test is a modification of a procedure described by Colpaert et al. (1975).^3 Male NMRI mice (22±3 g) were housed in macrolon observation cages (L×W×H: 11×12×17 cm; n=3 per cage). At the start of the experiments immediately before test compound administration, the initial body temperature of the mice was measured with a precision of 0.1° C. by inserting the thermo-sensitive probe (1.0 mm diameter) of an electric thermometer (Comark) to a constant depth of 3 cm into the esophagus until a stable reading was obtained. The right eye pupil diameter was measured with a graduated microscope and expressed in 1/24 mm units. Fifteen min after test compound administration, the mice were challenged with Ro-4-1284 (10 mg/kg, s.c.). Ro-4-1284 is a reserpine-like vesicular monoamine transport (VMAT-2) inhibitor, which rapidly depletes secretory vesicles.^3,4 Fifteen, 30 and 60 min after challenge, the mice were scored for palpebral opening (0, 1, 2, 3, 4, 5) and locomotor activity (−1, 0, 1, 2, 3). At the 60-min interval, immediately after the scoring of overt behavior, the right eye pupil diameter and the esophageal temperature were measured again. Abnormal phenomena such as intensive sniffing, chewing, rearing, hyperemia, piloerection, salivation, tremors, convulsions and death were noted (the latter phenomena were also noted when occurring before Ro-4-1284 administration). Criteria for drug-induced effects: reversal of ptosis: palpebral opening score >1 at 15, 30 or 60 min (2.7, 0.5 and 0% false positive controls, respectively; n>350); induction of prostration: score −1 for locomotion at 15, 30 or 60 min (never observed in controls); reversal of hypomotility: score >0 for locomotion at 15, 30 and 60 min (2.2, 0.8 and 0% false positive controls, respectively); reversal of miosis: pupil diameter >5 units at 60 min (0.8% false positives); potentiation of hypothermia: temperature decrease (over the 1-h time interval)>9.0° C. (1.4% false positives); reversal of hypothermia: temperature decrease <3.0° C. (1.8% false positives).
According to the standard procedure, R0-4-1284 is injected 15 min following subcutaneous or oral administration and observations start 15 min later. Doses are initially given to 3 animals. When at least 2 out of the 3 animals show activity for at least one of the observations, the compound is considered active.

[2] = 80 mg/kg oral administration, 3 animals

Row | HCT116 cell proliferation inhibition pIC50 [1] | Compound | IC50 [1] | activity on reversal of hypomotility (Male NMRI mice; [2]) | activity on reversal of miosis (Male NMRI mice; [2]) | activity on reversal of ptosis (Male NMRI mice; [2]) | other results
1 | 6.06 | Cc1cc(Nc2ccnc3c2CCC3O)ccc1NCCc1c[nH]c2c(C(C)O)cccc12 (single isomer, unassigned) [Compound 12] |  |  |  |  | 
2 | 6.69 | Cc1cc(Nc2ccnc3c2CCC3O)ccc1NCCc1c[nH]c2c(C(C)O)cccc12 (single isomer, unassigned) [Compound 15] |  |  |  |  | 
3 | 5.53 | Cc1cc(Nc2ccnc3c2CCC3O)ccc1NCCc1c[nH]c2c(CCO)cccc12 (single isomer, unassigned) [Compound 23] |  |  |  |  | 
4 |  | COC1CCc2c(Nc3ccc(NCCc4c[nH]c5c(C(C)(C)O)cccc45)cc3)ccnc21 (single isomer, unassigned) [Compound 24] | 38 nM | did not show activity | did not show activity | did not show activity | 
5 |  | COC1CCc2c(Nc3ccc(NCCc4c[nH]c5c(C(C)(C)O)cccc45)cc3)ccnc21 (single isomer, unassigned) [Compound 25] |  | did not show activity | did not show activity | did not show activity | 
6 |  | Cc1cc(Nc2ccnc3c2CCC3(C)O)ccc1NCCc1c[nH]c2c(C(C)(C)O)cccc12 (single isomer, unassigned) [Compound 27] | 83.2 nM | did not show activity | did not show activity | did not show activity | 
7 |  | Cc1cc(Nc2ccnc3c2CCC3(C)O)ccc1NCCc1c[nH]c2c(C(C)(C)O)cccc12 (centres unmarked) [Compound 1] | 151 nM | did not show activity | did not show activity | did not show activity | 
8 |  | Cc1cc(Nc2ccnc3c2CCC3=O)ccc1NCCc1c[nH]c2c(C(C)O)cccc12 (centres unmarked) [Compound 4] | 1000 nM |  |  |  | activity on reversal of hypomotility (Male NMRI mice; 40 mg/kg): did not show activity; activity on reversal of miosis (Male NMRI mice; 40 mg/kg): did not show activity; activity on reversal of ptosis (Male NMRI mice; 40 mg/kg): did not show activity
9 |  | Cc1cc(Nc2ccnc(CO)c2)ccc1NCCc1c[nH]c2c(C(C)O)cccc12 (centres unmarked) [Compound 5] | 347 nM |  |  |  | 
10 |  | OCc1cccc2c(CCNc3ccc(Nc4ccnc5c4CCC5O)cc3)c[nH]c12 (centres unmarked) [Compound 6] | 4070 nM |  |  |  | 
11 |  | C=C(C)c1cccc2c(CCNc3ccc(Nc4ccnc5c4CCC5OC)cc3)c[nH]c12 (centres unmarked) [Compound 7] | 100 nM | did not show activity | did not show activity | did not show activity | 
12 |  | Cc1cc(Nc2ccnc3c2CCC3O)ccc1NCCc1c[nH]c2c(CCC(C)O)cccc12 (centres unmarked) [Compound 9] | 955 nM |  |  |  | 
13 | 6.47 | Cc1cc(Nc2ccnc3c2CCC3(C)O)ccc1NCCc1c[nH]c2c(C(C)O)cccc12 (centres unmarked) [Compound 10] |  |  |  |  | 
14 | 6.67 | COc1cc(Nc2ccnc3c2CCC3O)ccc1NCCc1c[nH]c2c(C(C)(C)O)cccc12 (centres unmarked) [Compound 11] |  |  |  |  | 
15 | 6.68 | COC1CCc2c(Nc3ccc(NCCc4c[nH]c5c(C(C)O)cccc45)c(C)c3)ccnc21 (centres unmarked) [Compound 16] |  |  |  |  | 
16 |  | Cc1cc(Nc2ccnc3c2CCC3O)ccc1NCCc1c[nH]c2c(C(C)(C)O)cccc12 (centres unmarked) [Compound 18] | 53.7 nM | did not show activity | did not show activity | did not show activity | 
17 |  | Cc1cc(Nc2ccnc3c2CCC3O)ccc1NCCc1c[nH]c2c(C(C)(C)O)cccc12 (centres unmarked) [Compound 20] |  | did not show activity | did not show activity | did not show activity | 

Row | Compound | HCT116 cell proliferation inhibition pIC50 [1] | IC50 [1] | activity on reversal of hypomotility (Male NMRI mice; [2]) | activity on reversal of miosis (Male NMRI mice; [2]) | activity on reversal of ptosis (Male NMRI mice; [2]) | other results
18 | Cc1cc(Nc2ccnc3c2CCC3(C)O)ccc1NCCc1c[nH]c2c(C(C)(C)O)cccc12 (single isomer, unassigned) [Compound 26] | 7.26 |  | did not show activity | did not show activity | did not show activity | 
19 | COC1CCc2c(Nc3ccc(NCCc4c[nH]c5c(C(C)(C)O)cccc45)c(C)c3)ccnc21 (single isomer, unassigned) [Compound 28] | 7.11 |  | did not show activity | did not show activity | did not show activity | 
20 | COC1CCc2c(Nc3ccc(NCCc4c[nH]c5c(C(C)(C)O)cccc45)c(C)c3)ccnc21 (single isomer, unassigned) [Compound 29] | 7.37 |  | did not show activity | did not show activity | did not show activity | 
21 | CC(C)(O)c1cccc2c(CCNc3ccc(Nc4ccnc5c4CCC5(C)O)cc3)c[nH]c12 (single isomer, unassigned) [Compound 30] | 7.19 |  | did not show activity | did not show activity | did not show activity | 
22 | CC(C)(O)c1cccc2c(CCNc3ccc(Nc4ccnc5c4CCC5(C)O)cc3)c[nH]c12 (single isomer, unassigned) [Compound 31] | 6.94 |  | did not show activity | did not show activity | did not show activity | 
